Data: the supplement of paper PMC10307832

Columns and labels:
Experiment in all cases: relative viability (nuclei count vs DMSO), 5 days (fraction); higher = more cells survive
[1] = compound: O=c1[nH]cc(F)c(=O)[nH]1 [5-Fluorouracil] + Nc1ncn([C@H]2C[C@H](O)[C@@H](CO)O2)c(=O)n1 [Decitabine] (partner 2 µM)
How it was run: (§1)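 For relative viability, nuclei counts in treated wells were divided by those in vehicle wells. Lung cancer cell lines had been pin-tool dosed in 1536-well plates the day after seeding and cultured for 5 days, then fixed and stained in one step (final 0.05% Triton X-100, 1% formaldehyde, 1 ug/ml Hoechst) and imaged at 4×. Doses were one drug alone or a fixed anchor-drug dose plus five library-drug doses (not always all listed) in √10 steps, and values are duplicate-plate medians.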

[2] = compound: CN[C@@H]1C[C@H]2O[C@@](C)([C@@H]1OC)n1c3ccccc3c3c4c(c5c6ccccc6n2c5c31)C(=O)NC4 [Staurosporine] + Nc1nc2[nH]cc(CCc3ccc(C(=O)N[C@@H](CCC(=O)O)C(=O)O)cc3)c2c(=O)[nH]1 [Pemetrexed] (partner 0.2 µM)
How it was run: as §1

Sulindac + Foretinib = compound: CC1=C(CC(=O)O)c2cc(F)ccc2/C1=C\c1ccc([S+](C)[O-])cc1 [Sulindac] + COc1cc2c(Oc3ccc(NC(=O)C4(C(=O)Nc5ccc(F)cc5)CC4)cc3F)ccnc2cc1OCCCN1CCOCC1 [Foretinib] (partner 0.25 µM)
How it was run: as §1

[3] = compound: O=c1[nH]cc(F)c(=O)[nH]1 [5-Fluorouracil] + Cc1cc(Nc2cc(N3CCN(C)CC3)nc(Sc3ccc(NC(=O)C4CC4)cc3)n2)n[nH]1 [Tozasertib] (partner 0.1 µM)
How it was run: as §1

Cell Line | relative viability ([1]; first compound 0.02 µM) | relative viability ([1]; first compound 0.2 µM) | relative viability ([1]; first compound 0.6325 µM) | relative viability ([1]; first compound 2 µM) | relative viability ([2]; first compound 0.005 µM) | relative viability ([2]; first compound 0.01581 µM) | relative viability ([2]; first compound 0.05 µM) | relative viability ([2]; first compound 0.1581 µM) | relative viability ([2]; first compound 0.5 µM) | relative viability (Sulindac + Foretinib; first compound 0.08 µM) | relative viability (Sulindac + Foretinib; first compound 0.253 µM) | relative viability (Sulindac + Foretinib; first compound 0.8 µM) | relative viability (Sulindac + Foretinib; first compound 2.53 µM) | relative viability (Sulindac + Foretinib; first compound 8 µM) | relative viability ([3]; first compound 0.02 µM) | relative viability ([3]; first compound 0.2 µM) | relative viability ([3]; first compound 0.6325 µM) | relative viability ([3]; first compound 2 µM)
PC-14 | 0.265 | 0.229 | 0.25 | 0.275 | 0.159 | 0.131 | 0.0585 | 0.0487 | 0.048 | 1.07 | 1.14 | 0.671 | 1.04 | 1.01 | 0.54 | 0.618 | 0.599 | 0.453
HARA | 0.519 | 0.533 | 0.605 | 0.488 | 0.195 | 0.167 | 0.134 | 0.138 | 0.168 | 1.28 | 1.05 | 0.991 | 0.819 | 1.1 | 0.165 | 0.122 | 0.129 | 0.103
NCI-H23 | 0.33 | 0.295 | 0.367 | 0.279 | 0.459 | 0.143 | 0.216 | 0.163 | 0.113 | 0.879 | – | 0.782 | 0.607 | 1.03 | 0.544 | 0.327 | 0.318 | 0.189
LCLC-97TM1 | 0.242 | 0.269 | 0.207 | 0.201 | 0.185 | 0.111 | 0.186 | 0.149 | 0.117 | 0.939 | 0.992 | 0.804 | 0.803 | 0.962 | 0.223 | 0.271 | 0.181 | 0.199
LC-2-ad | 0.806 | 0.725 | 0.561 | 0.417 | 0.277 | 0.21 | 0.209 | 0.102 | 0.0993 | 0.855 | 1.01 | 0.877 | 0.872 | 1.02 | 0.443 | 0.382 | 0.365 | 0.293
NCI-H1666 | 0.706 | 0.564 | 0.534 | 0.502 | 0.737 | 0.613 | 0.53 | 0.538 | 0.415 | 1.01 | 1.02 | 0.908 | 0.975 | 1.13 | 0.672 | 0.446 | 0.4 | 0.399
EKVX | 0.297 | – | – | – | 0.197 | 0.139 | 0.189 | 0.255 | 0.141 | 0.666 | 0.942 | 0.421 | 0.683 | 0.995 | 0.35 | 0.172 | 0.147 | 0.131
SW 1573 | 0.619 | 0.505 | 0.53 | 0.502 | 0.297 | 0.34 | 0.204 | 0.0927 | 0.0611 | 1.19 | 1.17 | 0.776 | 0.788 | 0.955 | 0.205 | 0.175 | 0.183 | 0.153
HCC-827 | 0.298 | 0.431 | 0.36 | 0.297 | 0.266 | 0.278 | 0.246 | 0.171 | 0.154 | 1.03 | 1.05 | 1.1 | 1.01 | 1.09 | – | 0.433 | 0.391 | 0.29
NCI-H727 | 0.844 | 0.996 | 0.822 | 0.844 | – | – | – | – | – | 0.789 | 0.93 | – | 0.898 | 0.826 | 0.659 | 0.646 | 0.691 | 0.571
CAL-12T | – | – | – | – | 0.345 | 0.248 | 0.229 | 0.191 | 0.124 | 1.22 | 1.22 | 0.911 | 1.12 | 1.27 | 0.337 | 0.385 | 0.316 | 0.221
NCI-H1648 | 0.541 | 0.528 | 0.47 | 0.371 | 0.582 | 0.321 | 0.344 | 0.325 | 0.42 | – | – | – | – | – | 0.442 | 0.457 | 0.372 | 0.207
NCI-H522 | 0.642 | 0.58 | 0.622 | 0.722 | 1.08 | 0.7 | 0.847 | 0.742 | 0.579 | – | – | – | – | – | 0.515 | 0.556 | 0.586 | 0.48
IA-LM | – | – | – | – | – | – | – | – | – | 1.23 | 1.19 | – | 1.2 | 1.3 | – | – | – | –
EPLC-272H | 0.357 | 0.305 | 0.224 | 0.22 | 0.213 | 0.13 | 0.146 | 0.0971 | 0.0691 | 0.669 | 0.763 | – | 0.711 | 0.745 | 0.292 | 0.223 | 0.259 | 0.222
A-427 | 0.526 | 0.603 | 0.544 | 0.479 | 0.633 | 0.58 | 0.335 | 0.209 | 0.175 | 1.08 | 1.05 | 0.979 | 1.17 | 1.02 | 0.181 | – | 0.189 | 0.159
NCI-H661 | 0.574 | 0.596 | 0.495 | 0.551 | 0.901 | 0.667 | 0.542 | 0.353 | 0.186 | 1.12 | 1.05 | 0.999 | 1.1 | 1.03 | 0.365 | 0.355 | 0.342 | 0.319
NCI-H1993 | 0.692 | 0.595 | 0.541 | 0.46 | 0.631 | 0.428 | 0.539 | 0.332 | 0.267 | 0.728 | 0.724 | 0.751 | 0.761 | 0.752 | 0.556 | 0.61 | 0.585 | 0.554
NCI-H358 | 0.187 | 0.224 | 0.214 | 0.225 | 0.165 | 0.158 | 0.102 | 0.102 | 0.0764 | 0.85 | 0.763 | 0.572 | 0.621 | 0.826 | 0.132 | 0.104 | 0.0975 | 0.103
